Where a name gives a salt, the structure may show the parent alone.
Legend:
[1] = system: patients with Class III/IV heart failure; conditions: cited from earlier work
[2] = BEST trial, peripheral venous norepinephrine and haemodynamic changes; format: in vivo, human
Experimental: Because of an initial delay in setting up the procedures, collection of blood samples for norepinephrine in all randomized patients began 6 months after trial initiation.
Peripheral venous NE samples were drawn at baseline, 3 and 12 months by inserting a 21 gauge butterfly needle into an arm vein and placing the subject in a quiet room in a supine position for 30 minutes. The initial 3 ml of blood was discarded, and then 5 ml of blood was withdrawn and immediately transferred to pre-chilled 5 ml tubes containing EDTA. Within 30 min plasma was separated and frozen at −70° C. Sites shipped samples on dry ice to a central laboratory (LabCorp, Raritan, N.J.) every 3 mo, where the samples were stored at −85° C. and assayed within 3 weeks. NE was measured by HPLC-electrochemical detection using the Bio-Rad HPLC method (Bio-Rad Laboratories Hercules, Calif.). Quality control included re-measuring all samples with initial values of <200 pg/ml or >2000 pg/ml, from the 2nd stored tube; and routinely (every 20 samples) measuring known amounts.
Means and standard deviations (SD) for continuous data, and proportions or percentages for categorical data are presented. T-tests or Wilcoxon rank sum tests were used for continuous data, and chi-square or Fisher's exact test for categorical data. An alpha level of 0.05 (2 tailed, unadjusted) was used to indicate statistical significance.

In the case of `CC(C)(Cc1c[nH]c2ccccc12)NCC(O)COc1ccccc1C#N` (stereo not drawn) [bucindolol, (2-{2-hydroxy-3{{2-(3-indolyl)-1,1-dimethylethyl}amino}propoxy}-benzonitrile hydrochloride)], the “HF Hospitalization hazard ratio, bucindolol vs placebo” value ([1]; BEST entire cohort (n = 2708)) is given as 0.78; 1045 Ev, the “Mortality + HF Hospitalization hazard ratio, bucindolol vs placebo” value ([1]; BEST entire cohort (n = 2708)) is given as 0.81; 1421 Ev and the “reduction in all-cause mortality” value ([1]; BEST entire cohort) is given as 10%. For the same compound, the “reduction in mortality or heart failure hospitalization” value ([1]; BEST entire cohort) was 19%, the “reduction in event rate (death or heart failure hospitalization)” value ([1]; Class III patients, overall) was 22% and the “increase in combined endpoint of death or heart failure hospitalization” value ([1]; Class IV patients, first 6 months of treatment) was 1.7 fold. The “Change in LVEF @ 12 mos” value ([2]; Bucindolol Incr subgroup) was 7.1 ± 8.8 EFU, the “Change in LVEF @ 12 mos” value ([2]; Bucindolol Inter subgroup) was 7.3 ± 10.4 EFU and the “Change in LVEF @ 12 mos” value ([2]; Bucindolol Redxn subgroup) was 8.8 ± 9.2 EFU.
